Assay results as given in ChEMBL document CHEMBL3507680, “University of Dundee, Gates Library screen for HepG2 cell viability”.

Assay: Human HepG2 cell viability assay in 384 well format
Type: toxicity, cell-based
Parameters: dose 125 nL, time 70.5 hour; cytotoxicity at 70.5 h: concentration not given beside the values
Conditions: HepG2 cells, read-out: Inhibition

SMILES | cytotoxicity at 70.5 h [%]
COc1ccccc1-c1nnc2n1NC(N)=C(C#N)S2 | -28.8
CCCc1nc2c(c(C)c(C)n2Cc2cccnc2)c(N)c1CC | 54.7
O=C(c1nc(Cc2c[nH]c3ccccc23)no1)N1CCCC1 | -3.26
Cc1ccnc(SCC(=O)Nc2csc3nc(=O)c(C)nn23)n1 | 7.67
O=C(O)CNC(=O)Cc1csc(-c2ccccc2F)n1 | 18.6
O=C(CNC(=O)N1CCc2c([nH]c3ccc(Cl)cc23)C1)NCCCO | -18.9
O=C1CCCC2=C1C(c1ccccc1Cl)Nc1nonc1N2 (stereo unspecified) | 0.0122
COCCNC(=O)c1nc(NS(=O)(=O)c2ccccc2)sc1C | -18.8
COc1ccccc1CNc1ccc2nncn2n1 | -11.2
COC(=O)CCNC(=O)c1nc(NS(=O)(=O)c2ccccc2)sc1C | -23
CC(=O)Nc1ccc(OCc2noc(C(=O)N3CCCCCC3)n2)cc1 | -21.4
N#CC1=C(N)Nn2c(nnc2-c2ccccc2Br)S1 | -19
CC(C)NC(=O)CCC(=O)N1CCC(c2noc3cc(F)ccc23)CC1 | -17.2
CN1C(=O)C2(CC(=O)Nc3c2cnn3C(C)(C)C)c2ccccc21 (stereo unspecified) | -18.7
O=C1CCCC2=C1C(c1cc(Cl)ccc1F)Nc1nonc1N2 (stereo unspecified) | 9.69
CCOC(=O)c1nc(COc2ccc(CC(N)=O)cc2)no1 | -10.5
COCCNC(=O)Cc1cnc(-n2cccc2)s1 | -22.5
Cc1occc1-c1nnc2n1NC(N)=C(C#N)S2 | -22.4
N#Cc1nc(COc2ccc3c(c2)OCO3)oc1N1CCCC1 | -26.5
CN1C(=O)C2(CC(=O)Nc3[nH]ncc32)c2ccc(F)cc21 (stereo unspecified) | -15.5
C[C@@H](O)CNC(=O)c1nc(CC(=O)Nc2cccc(C(F)(F)F)c2)no1 | -23.7
Cc1occc(=O)c1OCc1noc(C(=O)NC(C)C)n1 | -15.1
Cc1cccc(N2Cc3nc(=O)n(Cc4cccc(F)c4)n3C2=O)c1 | -18

SMILES | cytotoxicity at 70.5 h [%]
Cc1nc2oc(C(=O)N3CCOCC3)c(N)c2c2c1CCCC2 | -17.3
COc1cc2c(cc1OC)C(=O)C(Sc1nnc(C)o1)C2 (stereo unspecified) | -15.9
COC(=O)CCC(=O)N(Cc1ccc2cc[nH]c2c1)C1CC1 | -17.3
NC(=O)Cc1ccc(OCc2noc(C(=O)N3CCCC3)n2)cc1 | -23.4
O=S1(=O)CCC(S(=O)(=O)c2cccc(S(=O)(=O)N3CCOCC3)c2)C1 (stereo unspecified) | -8.35
Cc1ccc2c(c1)C1(CC(=O)Nc3[nH]ncc31)C(=O)N2C (stereo unspecified) | -21.9
CC(C)NC(=O)Cn1ccc2c(Cl)cccc21 | -19
Cc1occc(=O)c1OCc1noc(C(=O)NCC(C)C)n1 | -16.8
N#Cc1nc(COc2ccc3c(c2)OCO3)oc1N1CCCCCC1 | -21.8
Cc1cc(C)n(Cc2ccc(-c3noc(C(=O)NC[C@@H](C)O)n3)cc2)n1 | -14.8
CC[C@@H](C)[C@H](NC(=O)Cn1ccc2c(Cl)cccc21)C(=O)O | -13.9
CN1C(=O)COc2ccc(C(=O)Cn3cnc4ccsc4c3=O)cc21 | 17.1
CCC(C)NC(=O)c1snnc1-c1ccc(OC)cc1 (stereo unspecified) | 0.408
O=C(Cc1csc(-c2ccccc2F)n1)NCc1cccc(C(=O)O)c1 | -17.7
O=C(Nc1ccccn1)C1(n2cnnn2)CCCCC1 | -21.1
O=C1N(c2cccc(F)c2)Cc2nc(=O)n(Cc3ccc(Cl)cc3)n21 | -12.7
O=C1N(c2cccc(F)c2)Cc2nc(=O)n(Cc3ccccc3Cl)n21 | -18.7
CC(C)CCNC(=O)c1ccc(-n2cnc3ccccc3c2=O)cc1 | -27.3
COc1cccc(-c2nc(C)c(C(=O)NCCC(=O)O)s2)c1 | -15.8
CCc1c(C)sc2c1c(N)nc(=O)n2CCN(C)C | 18.9
COc1ccc2cnn(CC(=O)NC3CCCCC3)c(=O)c2c1OC | 1.17
Cc1occc(=O)c1OCC(=O)N1CCN(c2ccccc2)CC1 | -0.838
O=C(Cc1csc(-c2ccccc2Cl)n1)NCc1cccc(C(=O)O)c1 | -18.1

SMILES | cytotoxicity at 70.5 h [%]
COc1ccc(NC(=O)Cn2c(=O)nc(N)c3cc(C)sc32)cc1 | -13.1
O=C1CC(c2ccccc2)c2c(c(C(=O)O)cn2-c2ccccc2)N1 (stereo unspecified) | -10.7
Cc1n[nH]c2nc(-c3cc(Br)ccc3O)cc(C(=O)O)c12 | 8.54
CN1CCN(C(=O)c2cc3sccc3n2Cc2ccccc2)CC1 | -6.85
COC(=O)c1ccc(C2CC(=O)Nc3c2cnn3C)cc1 (stereo unspecified) | 3.26
Cc1c(OCC(=O)NCc2ccccc2)c(=O)ccn1C | -17.6
NC(=O)c1c(SCCN2CCCCC2)sc2c(O)cc(=O)[nH]c12 | -7.79
Cc1c(C2SCC(=O)Nc3c2cnn3C(C)(C)C)cnn1C (stereo unspecified) | -10.1
COc1ccccc1N1CCN(C(=O)COc2c(C)occc2=O)CC1 | 6.76
Cn1ncc2c1NC(=O)CSC2c1ccc2c(c1)OCO2 (stereo unspecified) | 10.3
Cc1ccc(CN2CC[C@H]3C(=O)N(c4cccnc4)CCO[C@H]3C2)o1 | -5.97
CN1Cc2c(C(=O)N3CCOCC3)ncn2-c2ccccc2S1(=O)=O | -1.47
CN1CCN(C(=O)c2ncn3c2CNS(=O)(=O)c2ccccc2-3)CC1 | 1.85
Cc1nc(-c2cc(C(=O)NCC(C)(C)CO)c3ccccn23)cs1 | 5.35
O=C(c1ccc[nH]1)N1CCC2(CC1)COCCN(c1nccs1)C2 | -1.47
CN1CC[C@]2(CN(C(=O)[C@H]3CCCO3)C[C@H]2c2ccccc2)C1=O | -2.45
O=S(=O)(C1CC1)N1CCn2c(Cn3cccn3)cnc2C1 | -1.3
Cc1csc(CN2CC[C@H]3C(=O)N(c4cccnc4)CCO[C@H]3C2)n1 | 11
N#Cc1cccc(N2CCCC3(CN(C(=O)NC4CC4)CCO3)C2)c1 (stereo unspecified) | -1.09
CCS(=O)(=O)N1Cc2c(Cn3cccc3)nn(C(C)C)c2C1 | -2.77
Cc1ccc(N2CC3(CCN(S(=O)(=O)C4CC4)C3)C2)nn1 | -5.86
CCS(=O)(=O)N1CCC2(CC1)CC[C@@]1(C(=O)N(C)C)CN(C(C)=O)C[C@@H]21 | 13.5
COCCN1C(=O)C2(CCC(C(=O)Nc3ccc(C)cc3)CC2)N=C1C (stereo unspecified) | 10.5

SMILES | cytotoxicity at 70.5 h [%]
O=C(NCC1CC[C@@]2(CNCCOC2)O1)c1cnccn1 (stereo partly specified) | 27.6
CNC(=O)[C@H]1C[C@@H]2CN(c3cc(OC)ncn3)C[C@@H]2N1C(C)C | 15.2
COCC(=O)N1CC[C@H]2[C@H]1CCN2CC(C)C | -12.6
CNC(=O)[C@@H]1COC[C@H]2CN(C(=O)c3ccc(C)c(C)c3)C[C@H]21 | -7.79
COCCN1CCC(CNC(=O)C2(c3ccccc3)CCC2)C1 (stereo unspecified) | -3.28
COCCN1CCC(CNC(=O)C2(c3ccc(Br)cc3)CCCC2)C1 (stereo unspecified) | -0.291
Cc1ccc(C2=CCN(C(=O)C3CCN(C)C(=O)C3)CC2)cc1 (stereo unspecified) | -6.32
COc1ccc(C2=CCN(C(=O)C3CCCN(C(C)=O)C3)CC2)cc1 (stereo unspecified) | -1.69
CCc1cnc(CN(C(C)=O)C2CCN(CCN3CCCCC3)C2)o1 (stereo unspecified) | -3.61
Cc1ccccc1C1CCCN1Cc1ccc(S(=O)(=O)N(C)C)o1 (stereo unspecified) | -2.87
CN(C)C(=O)CCCS(=O)(=O)Cc1cc(Cl)c2c(c1)OCO2 | -2.84
CC(C)c1nn(C)c(N(C)C)c1CNCCC(=O)NC1CCCCC1 | 37.6
Cc1nn(C)c(N(C)C)c1CNCCC(=O)NC1CCCC1 | 3.14
Cc1nn(C)c(N(C)C)c1CNCCC(=O)NC1CCCCC1 | -0.221
CNS(=O)(=O)c1ccc(C(=O)N2CCCC2c2ccccc2C)o1 (stereo unspecified) | -1.59
COc1c(CNCCC(=O)NC2CCCCC2)c(C(C)C)nn1C | -0.685
O=C(NCC1CCC2(CCNCC2)CO1)c1cnccn1 (stereo unspecified) | 9.23
CCn1ncc2c1CN(C(=O)c1cc(C)oc1C)CC2COC (stereo unspecified) | -0.428
CCc1ccc(NC(=O)N2Cc3c(CN(C)C)nn(C)c3C2)cc1 | -2.56
Cc1ccc(N2CCC3(CC2)CCN(C2CCOCC2)CC3)nn1 | -2.19
O=C1CC2(CCCCN2CC2CC2)CN1c1ccccc1 (stereo unspecified) | -3.65
O=C(NC1CC1)[C@@H]1CN(Cc2ccc3c(c2)OCO3)C[C@H]2OCC[C@H]21 | -1.06
Cc1cccc(CN2CCc3c(CNC(=O)CC#N)nn(C)c3C2)n1 | -0.367

SMILES | cytotoxicity at 70.5 h [%]
N#Cc1ccccc1N1CC2(CCCCN2CC2CC2)CC1=O (stereo unspecified) | 7.89
NC(=O)c1nc2c(s1)CCN(Cc1ccccc1)CC2 | -2.47
CCN(CC)C(=O)c1nc2c(s1)CCN(Cc1cccc(OC)c1)CC2 | -11.2
COCC(=O)N1CCc2ccc(=O)n(Cc3csc(C)n3)c2CC1 | -6.47
CCCN1CCCn2c(nc(CNC(=O)c3nccn3C)cc2=O)C1 | -9.48
Cn1ccnc1C(=O)N1CCC2(CCCN2CC2CC2)CC1 | -7.19
CCCN1CCCn2c(nc(CNC(=O)N3CCCC3)cc2=O)C1 | -9.21
COc1cccc(CN2CCc3nc(C(=O)NCC(C)C)sc3CC2)c1 | 10.6
CS(=O)(=O)N1C[C@H]2CCCN(Cc3nccs3)[C@H]2C1 | 14.5
CNC(=O)CC1CC2(CCN(c3ncccn3)CC2)c2ccccc21 (stereo unspecified) | -6.77
Cn1cc(CN2CCC3(CC2)C(=O)Nc2ccccc23)cn1 | -6.51
CCn1ncc2c1C(COCC1CC1)N(Cc1ccccn1)CC2 (stereo unspecified) | -1.07
c1ccc(OCc2n[nH]c3c2CN(CC2CC2)C3)nc1 | -2.5
c1ccc(OCc2n[nH]c3c2CN(Cc2cccs2)C3)nc1 | -0.121
c1cc2c(cc1CN1C[C@@H]3COC[C@@H](N4CCCC4)[C@@H]3C1)OCO2 | -6.89
CN(C)C(=O)CN1CCOCC2(CCN(CC3CCOC3)CC2)C1 (stereo unspecified) | 15.1
Cc1ccc2c(n1)N(CCN(C)C)CCN(Cc1c(C)noc1C)C2 | -2.08
CN(C)CCN1CCCC12CCCN(Cc1ccoc1)C2 (stereo unspecified) | 13.7
CC(C)N1CCc2c(c(COc3cccnc3)nn2CC2CC2)C1 | -2.06
